# Measurements reported in patent publication US7563910B2, “Heterocyclic cannabinoid receptor antagonists” (Hoffmann-La Roche Inc., priority 2004, dated 2009).
# Experiments:
# [1] = molecular target: T1, human cannabis CB1 receptor (Homo sapiens, UniProt P21554); assay: Affinity for cannabinoid CB1 receptors, [3H]-CP-55,940 radioligand binding on HEK cell membranes; conditions: affinity for the CB1 receptor
# T1 construct: expressed in transfected cells; host or cells: human embryonic kidney (HEK) cells, transient, Semliki Forest Virus system; membrane preparation
# T1 sequence (P21554 whole entry): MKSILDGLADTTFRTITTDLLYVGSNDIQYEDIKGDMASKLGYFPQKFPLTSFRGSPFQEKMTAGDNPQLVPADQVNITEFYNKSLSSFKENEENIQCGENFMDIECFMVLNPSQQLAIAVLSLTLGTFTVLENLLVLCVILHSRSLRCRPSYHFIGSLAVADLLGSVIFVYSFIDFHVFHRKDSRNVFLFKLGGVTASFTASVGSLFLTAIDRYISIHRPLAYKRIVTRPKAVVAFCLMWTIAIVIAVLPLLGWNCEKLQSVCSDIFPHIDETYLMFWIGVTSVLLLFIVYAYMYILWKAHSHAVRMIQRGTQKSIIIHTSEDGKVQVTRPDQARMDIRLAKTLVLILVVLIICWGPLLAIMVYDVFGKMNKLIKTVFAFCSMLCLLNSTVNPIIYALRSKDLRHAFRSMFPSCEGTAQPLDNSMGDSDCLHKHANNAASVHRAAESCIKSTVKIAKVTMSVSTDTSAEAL
# Procedure: The affinity of the compounds of the invention for cannabinoid CB1 receptors was determined using membrane preparations of human embryonic kidney (HEK) cells in which the human cannabis CB1 receptor is transiently transfected using the Semliki Forest Virus system in conjunction with [3H]-CP-55,940 as radioligand. After incubation of a freshly prepared cell membrane preparation with the [3H]-ligand, with or without addition of compounds of the invention, separation of bound and free ligand was performed by filtration over glassfiber filters. Radioactivity on the filter was measured by liquid scintillation counting. The affinity of the compounds of the invention for cannabinoid CB2 receptors was determined using membrane preparations of human embryonic kidney (HEK) cells in which the human cannabis CB2 receptor is transiently transfected using the Semliki Forest virus system in conjunction with [3H]-CP-55,940 as radioligand. After incubation of a freshly prepared cell membrane preparation with the [3H]-ligand, with or without addition of compounds of the invention, separation of bound of bound and free ligand was performed by filtration over glassfiber filters. Radioactivity on the filter was measured by liquid scintillation counting. The cannabinoid CB1 antagonistic activity of compounds of the invention was determined by functional studies using CHO cells in which human cannabinoid CB1 receptors are stably expressed (see M. Rinaldi-Carmona et. al., J. Pharmacol. Exp. Ther. 278 (1996) 871). The stable expression of the human cannabinoid receptor in cell systems was first described in Nature 1990, 346, 561-564 (CB1) and Nature 1993, 365, 61-65 (CB2) respectively. Adenylyl cyclase was stimulated using forskolin and measured by quantifying the amount of accumulated cyclic AMP. […]
# The compounds of formula (I) show an excellent affinity for the CB1 receptor, determined with the experimental conditions described in Devane et. al. Mol. Pharmacol. 34 (1988) 605-613. […]
# [2] = wild-type versus CB1 receptor knockout mice; cited from earlier work
# [3] = 10 and 20 mg daily, compared to placebo; cited from earlier work
Compound,IC50 [1],food intake [2],body weight [3]
"Cc1c(C(=O)NC2CCCCC2)cc(-c2ccccc2OC(F)(F)F)n1CC1COCCO1 (racemic) [Example 10, (rac) 1-[1,4]Dioxan-2-ylmethyl-2-methyl-5-(2-trifluoromethoxy-phenyl)-1H-pyrrole-3-carboxylic acid cyclohexylamide]",76 nM,,
"Cc1c(C(=O)NN2CCCCC2)nc(-c2ccc(OC(F)(F)F)cc2)n1CC1CCCCO1 (centres unmarked) [Example 1, 5-Methyl-1-(tetrahydro-pyran-2-ylmethyl)-2-(4-trifluoromethoxy-phenyl)-1H-imidazole-4-carboxylic acid piperidin-1-ylamide]",120 nM,,
"Cc1c(C(=O)NC2CCCCC2)cc(-c2cc(C(F)(F)F)ccc2C(F)(F)F)n1C[C@H]1CCCO1 [Example 23, 5-(2,5-Bis-trifluoromethyl-phenyl)-2-methyl-1-[(R)-1-(tetrahydro-furan-2-yl)methyl]-1H-pyrrole-3-carboxylic acid cyclohexylamide]",8 nM,,
Cc1c(C(=O)NN2CCCCC2)nn(-c2ccc(Cl)cc2Cl)c1-c1ccc(Cl)cc1 [SR 141716],,reduces food intake in wild-type but not knockout mice,significantly reduced body weight
